Structures are written as SMILES.

Test [1] relates to patients with type-1 diabetes. The test can be described thus: Standardized mixed meal test after 4 weeks pramlintide TID added to CSII (Example 1). Format: in vivo, human. From the text:
This Study Assesses the Effect of the Amylin Agonist Pramlintide on Post-Prandial Plasma Glucose and Triglyceride Excursions in Patients with Type-1 Diabetes Intensively Treated with Continuous Subcutaneous Insulin Infusion (CSII).
All 23 patients in this study are ≧16 years of age, have type-I diabetes for ≧1 year and have been intensively treated (CSII, basal/bolus regimen) for at least 6 months. Patients are using either lispro (n=21) or regular (n=2) insulin, have not changed their daily insulin dose by more than ±10% for 2 months prior to the study, and have been free from severe hypo- and hyperglycemic symptoms for at least 4 weeks prior to the study. Exclusion criteria include a clinically significant history or presence of heart disease, uncontrolled hypertension (blood pressure ≧160/90 mm Hg), gastrointestinal, hepatic, renal, or central nervous system disorders, acute illness, a history of drug or alcohol abuse, or treatment with drugs known to affect gastrointestinal motility or glucose metabolism.
The study consists of 3 time periods (baseline, 4 weeks on-therapy, 2 weeks off-therapy). At the end of each time period (weeks 0, 4, 6), patients are evaluated at the clinical research center (CRC). Each evaluation includes a standardized meal test.
The first evaluation (baseline) is conducted when patients are solely treated with their usual CSII regimen. After the baseline evaluation, patients are randomized to self-administer either placebo (n=6) or pramlintide (n=17) TID with major meals, in addition to their existing CSII therapy, for 4 weeks. The placebo group is included to provide data that could be used to determine adequate power analyses when planning future studies and not for the purpose of placebo comparisons. […]
On each of the 3 CRC visits, patients undergo a standardized mixed meal test the morning after an overnight fast. […] Blood samples are processed in accordance with standard clinical practice using a reference lab and commercially available products (e.g., quantitative enzymatic in vitro assay for Triglycerides GPO-PAP, Roche Diagnostics). […]

Test [2] concerns subjects with type 1 diabetes. Put plainly: Single-dose crossover study of pramlintide injection timing relative to a standardized breakfast, type 1 diabetes (Example 2). Format: in vivo, human. As to conditions: pramlintide 60 μg SC, -15 to +30 min relative to meal. From the text:
(§1) In this example, a randomized, single-blind, placebo-controlled, five-way crossover study is designed to examine the effect of the timing of pramlintide injection relative to meal ingestion on postprandial plasma glucose profiles and triglycerides in subjects with type 1 diabetes and subjects with type 2 diabetes using insulin. Three study groups are defined by diabetes type and mealtime insulin used in their treatment regimen. On 5 study days, subjects receive a single dose of one of five treatments (A, B, C, D, or E) in random order:
(§2) Each treatment (pramlintide or placebo) is administered subcutaneously (SC) within specified times relative to a standardized breakfast after an overnight fast. Subjects are randomly assigned to one of four treatment sequences according to a randomization schedule generated for each study group.
Subjects with type 1 diabetes received pramlintide 60 μg or placebo (equivalent volume). Subjects with type 2 diabetes using insulin receive pramlintide 120 μg or placebo (equivalent volume). Subjects maintain their usual insulin regimen during the study; if necessary, insulin dose adjustments are made in consultation with study personnel to facilitate achievement of fasting fingerstick glucose values in the range of ≧80 mg/dL and ≦250 mg/dL while avoiding hypoglycemia. The timing of the short-acting insulin dose relative to the standardized breakfast is based on recommendations in the respective package inserts for the insulin (0 min for insulin lispro and −30 min for regular insulin).
The study population consists of three study groups, defined by diabetes type and type of mealtime insulin used in their treatment regimen. Study Group 1: Subjects with type 1 diabetes using insulin lispro. Study Group 2: Subjects with type 1 diabetes using regular insulin. Study Group 3: Subjects with type 2 diabetes using insulin lispro. Fifty-nine subjects (21 type 1 subjects using insulin lispro; 19 type 1 subjects using regular insulin; and 19 type 2 subjects using insulin lispro) are enrolled in this study.

Test [3] has as its system subjects with type 2 diabetes using insulin. The test can be described thus: Single-dose crossover study of pramlintide injection timing relative to a standardized breakfast, type 2 diabetes using insulin (Example 2). Format: in vivo, human. As to conditions: type 2 patients treated with lispro insulin, pramlintide 120 μg SC, -15 to +30 min relative to meal.
Text: as §1, §2
Subjects with type 1 diabetes received pramlintide 60 μg or placebo (equivalent volume). Subjects with type 2 diabetes using insulin receive pramlintide 120 μg or placebo (equivalent volume). Subjects maintain their usual insulin regimen during the study; if necessary, insulin dose adjustments are made in consultation with study personnel to facilitate achievement of fasting fingerstick glucose values in the range of ≧80 mg/dL and ≦250 mg/dL while avoiding hypoglycemia. […]

Test [4] has as its system patients with type-1 diabetes. As to conditions: mealtime s.c. injections in addition to mealtime insulin, cited from earlier work.

With `CC[C@H](C)[C@H](NC(=O)[C@@H]1CCCN1C(=O)CNC(=O)[C@H](Cc1ccccc1)NC(=O)[C@H](CC(N)=O)NC(=O)[C@H](CC(N)=O)NC(=O)[C@H](CO)NC(=O)[C@H](CO)NC(=O)[C@H](Cc1c[nH]cn1)NC(=O)[C@@H](NC(=O)[C@H](CC(C)C)NC(=O)[C@H](Cc1ccccc1)NC(=O)[C@H](CC(N)=O)NC(=O)[C@H](C)NC(=O)[C@H](CC(C)C)NC(=O)[C@H](CCCNC(=N)N)NC(=O)[C@H](CCC(N)=O)NC(=O)[C@@H](NC(=O)[C@H](C)NC(=O)[C@@H]1CSSC[C@H](NC(=O)[C@@H](N)CCCCN)C(=O)N[C@@H](CC(N)=O)C(=O)N[C@@H]([C@@H](C)O)C(=O)N[C@@H](C)C(=O)N[C@@H]([C@@H](C)O)C(=O)N1)[C@@H](C)O)C(C)C)C(=O)N[C@@H](CC(C)C)C(=O)N1CCC[C@H]1C(=O)N1CCC[C@H]1C(=O)N[C@H](C(=O)N[C@@H](CC(N)=O)C(=O)N[C@H](C(=O)NCC(=O)N[C@@H](CO)C(=O)N[C@@H](CC(N)=O)C(=O)N[C@H](C(=O)N[C@@H](Cc1ccc(O)cc1)C(N)=O)[C@@H](C)O)C(C)C)[C@@H](C)O` [pramlintide, ^25, 28, 29Pro-h-amylin], the “post-prandial triglyceride excursions, mean incremental AUC” value amounted to 16.7 ± 56.8 mg·min/dL in test [1] (end of 4-week pramlintide treatment period, s.c. 15 min prior to meal, plus CSII, baseline period 65.7±87.6, p<0.05) and 56.2 ± 87.3 mg·min/dL in test [1] (week 6, 2 weeks after return to pre-treatment therapy (CSII only), off-therapy). Also, the “post-prandial glucose response to a mixed meal” value in test [1] (pramlintide added to insulin, type-1 diabetic patients) was “reduces”. Further, the postprandial glucose excursions result in test [2] (type 1 patients treated with lispro insulin), in test [2] (type 1 patients treated with regular insulin) and in test [3] was “markedly improves” each time. For the same compound, the postprandial triglyceride concentrations result is given as “markedly improves” in test [2] (type 1 patients treated with lispro insulin, FIG. 2); “markedly improves” in test [2] (type 1 patients treated with regular insulin, FIG. 3); “markedly improves” in test [3] (FIG. 4). In addition, the “rate of gastric emptying” value in test [4] (Kong et al. 1998) is “slows”. For the same compound, in test [4] (Nyholm et al. 1999, Fineman et al. 2002), the mealtime glucagon secretion entry is reported as “suppresses”. Besides, in test [4] (Nyholm et al. 1999, Thompson et al. 1997), the post-prandial glucose excursions entry was “improves”.

The record behind these values is patent US20030130177A1, “Use of amylin agonists to modulate triglycerides” (priority 2002, published 2003).
